Measurements as given in patent US12241094B2, “Phenazine degrading agents and related compositions, methods and systems for interfering with viability of bacteria” (priority 2016, dated 2025).
Entries after “also recorded” stand apart in the source; their conditions may differ. Marks after values point to notes of the source that are not given here.

B1: Y156F (protein)
chain: MTGKTKPAIIGGVAITALAAAGLGVWLFTDGRGGRSTTEPVTMTLDVKNDQVAKHDFGKPGMDVGDMDIFSDILSVDGKQVGYDGGACFFTNVTPDNPMTYCELTIHLDAGEIFARSLTPHTLAPFTMAITGGTGEYANSKGELTVSGVATPDEKFELKLTK

Tests used:
[1] = tested on: PA14; experiment: Reduction of redox-active compounds by PA14 (Table 1); format: cell-based, P. aeruginosa
[2] = oxidized form, values from references a, c, d; cited from earlier work
[3] = tested on: PA14; experiment: Redox cycles over 7 days and support of survival (Table 1); format: cell-based, P. aeruginosa
[4] = tested on: PodA30-162; experiment: Alternative substrate utilization by PodA; format: biochemical, Mycobacterium fortuitum; settings: for demethylation of alternative substrate by PodA30-162 (HPLC end point): 50 μg mL^−1 PodA30-162, 4 hours, dark
Experimental: Chemical formula diagrams of methylated substrates and their expected demethylated products, based on the prediction model, are shown, wherein arrows indicate demethylation catalyzed by PodA. Mixtures were analyzed by HPLC (right graphs) after 4 hours to determine the resulting products of each reaction. Standards for each product were run to determine retention times (indicated for each molecule with arrows). Only N-methylated phenazines were altered by incubation with PodA30-162. […] PMS, phenazine methosulfate.
Enzyme activity and analysis. PYO demethylation by PodA30-162 was first determined by HPLC analysis as described previously (6, 9). To detect formaldehyde evolution, 150 nM protein was mixed with 50 μM PYO in 1 mL of 20 mM Tris pH 7.6 amended with 200 μL Nash reagent (2 M ammonium acetate, 50 mM acetic acid, 20 mM acetylacetone) and incubated at 55° C. until the reaction proceeded to completion (37, 38). The products were determined by HPLC using the same method as used for phenazine quantification. To monitor the formation of reduced phenazine, protein and 50 μM PYO were placed into an anaerobic chamber (Coy Laboratory Products) under an atmosphere of H2/N2 (5:95) and left overnight before allowing the reaction to proceed. […] A BioTek Synergy 4 microplate reader (BioTek) plate reader in the anaerobic chamber was used to measure the emission spectrum of products with excitation at 250 nm. […] Reaction progress was monitored by measuring absorbance at 313 nm (40) every 0.5 seconds for 5 minutes. […] Kinetic parameters were calculated in Microsoft Excel using the Solver plug-in and fitting data to ideal Michaelis-Menton plots with non-linear regression of experimental data (41). For measurements of the rate of methoxy-PMS demethylation, 300 nM protein was used and methoxy-PMS loss from the reaction mixture was monitored at 500 nm wavelength. […] The stimulatory effects of flavin or 2-oxoglutarate addition was determined by adding 25 μM flavin or 2-oxoglutarate to 20 μM PYO and 15 nM PodA30-162 and monitoring the reaction. […]

[5] = tested on: P. aeruginosa PA14 biofilms; experiment: Biofilm formation, surface coverage (chambered coverglass, DAPI); format: cell-based; settings: 5 hours; PodA30-162 2 μg mL^−1, DNase 20 μg mL^−1; vs. PodA-inactive
Experimental: Biofilm experiments. For all experiments involving inactivated PodA, either the E154A mutant or PodA30-162 that was subjected to a 1 hour treatment at 98° C. was used. To test the ability of PodA30-162 to degrade PYO in the presence of DNA, genomic DNA (gDNA) from P. aeruginosa PA14 was used in modified versions of previously described assays (59). For experiments using DNA pellets, 0.5 mg of gDNA was pelleted in the presence of 300 mM sodium acetate, pH 5.2 and 70% ethanol. Pellets were washed with 70% ethanol and dried. 200 μL of 800 μM PYO was added to the gDNA pellet without mixing and left to sit at room temperature for 6 hours to allow for diffusion of PYO into the gDNA pellet. The pellet was washed once with 70% EtOH, and submerged in a solution containing 10 mM Tris, pH 7.0 and 40% isopropanol. The pellet remained blue, consistent with an association of PYO with DNA. PodA30-162 was added to the isopropanol solution to a final concentration of 2 μg mL^−1 and left to sit for 3 hours to allow for the reaction to proceed. Tubes were imaged before and after PodA30-162 treatment. For experiments using solubilized gDNA, a 400 μg mL^−1 solution of gDNA was mixed with PYO and allowed to equilibrate for 6 hours. The PYO gDNA mixture was amended with 1 μg mL^−1 PodA30-162 and loss of PYO was monitored on a BioTek Synergy 4 microplate reader (BioTek) plate reader at 690 nm. Standards were included to quantify PYO loss over time. To assess biofilm formation in the presence of PodA30-162, biofilms were grown in Nunc Lab-Tek chambered coverglass slides (8-well, 0.8 cm^2 area, supplier #155411) using a modified protocol (22). PA14 was inoculated into succinate minimal medium and grown overnight to stationary phase. Cells were resuspended in fresh medium and diluted to a starting OD500 of 0.5 in succinate minimal medium. PodA30-162 (2 μg mL^−1, final concentration) or DNase (20 μg mL^−1) (22) was added and 250 μL was added to each well of the 8-well chambered coverglass. Cultures were grown for 5 hours at 37° C. and 100 rpm (Innova 44 shaking incubator, New Brunswick) in a humidified chamber. After incubation, liquid was removed from each well by drawing with a pipet tip placed in the corner of each well and chambers were washed twice with 400 μL of biofilm wash (Tris buffer, pH 7.6 and 100 mM NaCl) to remove planktonic and loosely bound cells. Attached biomass was stained by adding 450 μL biofilm wash containing 10 μg mL^−1 DAPI (4′,6-diamidino-2-phenylindole) (Santa Cruz Biotechnology). Surface associated biomass was imaged on a Leica TCS SPE confocal microscope with a ACS APO 40×/1.15 oil immersion objective. A 405 nm solid-state laser was used for excitation, and data was collected from 420-500 nm. […]

[6] = PYO demethylation by purified PodA30-162 and mutants (spectrophotometric/HPLC); format: biochemical; settings: PYO demethylation; 60 nM mutant protein
Experimental: Enzyme activity and analysis. PYO demethylation by PodA30-162 was first determined by HPLC analysis as described previously (6, 9). To detect formaldehyde evolution, 150 nM protein was mixed with 50 μM PYO in 1 mL of 20 mM Tris pH 7.6 amended with 200 μL Nash reagent (2 M ammonium acetate, 50 mM acetic acid, 20 mM acetylacetone) and incubated at 55° C. until the reaction proceeded to completion (37, 38). The products were determined by HPLC using the same method as used for phenazine quantification. To monitor the formation of reduced phenazine, protein and 50 μM PYO were placed into an anaerobic chamber (Coy Laboratory Products) under an atmosphere of H2/N2 (5:95) and left overnight before allowing the reaction to proceed. To generate reduced PYO and 1-OH-PHZ, 50 μM were mixed with 1 mM sodium dithionite. The formation of reduced phenazine products was assayed visually under UV illumination (39). A BioTek Synergy 4 microplate reader (BioTek) plate reader in the anaerobic chamber was used to measure the emission spectrum of products with excitation at 250 nm. To determine the activity of PodA30-162 in the presence of glycerol, salts, or varying pH, 30 nM protein was suspended in 500 μL buffer, 40 μM PYO was mixed with 2× solution containing the buffer of interest (500 μL), and solutions were preheated to 30 C. For pH range measurements, the following buffers were used (40 mM, adjusted with KOH): acetic acid, pH 4.9; MES, pH 5.4 and 5.7; HEPES, pH 6.1; Tris, pH 6.9 and 7.5; Bicine, pH 7.8, 8.3 and 8.7; CHES, pH 9.4. To measure reaction rates, cuvettes containing the 2×PYO solution were placed in a Evolution 260Bio UV-Vis spectrophotometer (Thermo Scientific) and 500 μL of 30 nM protein was added at time 0 (15 nM protein and 20 μM PYO, final concentration). Reaction progress was monitored by measuring absorbance at 313 nm (40) every 0.5 seconds for 5 minutes. To measure kinetic parameters (kcat, Km) 15 nM protein was used in a reaction buffer of Bicine, pH 7.8; reactions were monitored as before with measurements every 0.2 seconds. The rate from the first 10 seconds of the reaction was used for the determination of kinetic parameters. Kinetic parameters were calculated in Microsoft Excel using the Solver plug-in and fitting data to ideal Michaelis-Menton plots with non-linear regression of experimental data (41). For measurements of the rate of methoxy-PMS demethylation, 300 nM protein was used and methoxy-PMS loss from the reaction mixture was monitored at 500 nm wavelength. Methoxy-PMS was purchased from TCI America. For assays with mutant proteins, 60 nM protein was used. The stimulatory effects of flavin or 2-oxoglutarate addition was determined by adding 25 μM flavin or 2-oxoglutarate to 20 μM PYO and 15 nM PodA30-162 and monitoring the reaction. Experiments testing alternative substrates were carried out using 1 mL reaction volumes containing 20 mM Tris (pH 7.6) and 50 μg mL^−1 PodA30-162. Alternative substrates tested were 10-methylphenothiazine (AlfaAesar), phenazine methosulfate (AlfaAesar), methoxyphenazine methosulfate (TCI America), and 4-keto-N-ethylphenazine. 4-keto-N-ethylphenazine was synthesized from phenazine ethosulfate (Sigma-Aldrich) by incubating under fluorescent light overnight followed by purification by HPLC as described (6, 42). As phenazine methosulfate is light sensitive and spontaneously converts to PYO in the presence of light, all reactions were carried out in the dark, and activity was assessed by end point analysis by HPLC after 4 hours (9).

| Molecule | Reduction by PA14? [1] | E^0, (vs. NHE) [2] | # of Redox cycles over 7 days [3] | Support survival? [3] | other results |
| --- | --- | --- | --- | --- | --- |
| C[n+]1ccc(-c2cc[n+](C)cc2)cc1 [Paraquat] | No | −446^e mV | No cycle | No |  |
| CCn1c2cccc(=O)c-2nc2ccccc21 [4-keto-N-ethylphenazine] |  |  |  |  | demethylation of alternative substrate by PodA30-162 (HPLC end point) [4]: not demethylated or de-ethylated |
| DNase [reference compound] |  |  |  |  | biofilm surface coverage [5]: inhibited biofilms; also recorded: decreased surface coverage |
| O=C1c2ccc(S(=O)(=O)O)cc2C(=O)c2ccc(S(=O)(=O)O)cc21 [2,6-AQDS] | Yes (very slowly) | −184^d mV | No cycle | No |  |
| O=C(O)c1cccc2nc3ccccc3nc12 [PCA, Phenazine-1-carboxylate] | Yes | −114^a mV | 22 | Yes |  |
| CN1c2ccccc2Sc2ccccc21 [10-methylphenothiazine] |  |  |  |  | demethylation of alternative substrate by PodA30-162 (HPLC end point) [4]: not demethylated or de-ethylated |
| COS(=O)(=O)[O-].COc1cccc2c1nc1ccccc1[n+]2C [methoxy-PMS, methoxyphenazine methosulfate] |  |  |  |  | methoxy-PMS demethylation over time ([4]; 300 nM protein, 500 nm): initial burst of activity followed by a slower steady state; also recorded: reaction rate slows significantly after an initial burst |
| B1 |  |  |  |  | wild type activity [6]: ~25% |
